Source: patent US10730911B2, “Backbone-cyclized peptidomimetics with GLP-1R modulating activity” (POLYPHOR AG, priority 2015, dated 2020)
Where a SMILES comes first, the peptide text is derived from it. [ ]: non-standard residue; d: D form. The star is where a group is joined. Trp(5-OH) = N[C@@H](Cc1c[nH]c2ccc(O)cc12)C(=O)O; His(π-Bn) = N[C@@H](Cc1cncn1Cc1ccccc1)C(=O)O; Phe(4-NH2) = Nc1ccc(C[C@H](N)C(=O)O)cc1; 3Pal = N[C@@H](Cc1cccnc1)C(=O)O; Ac6c = NC1(C(=O)O)CCCCC1; Dpg = CCCC(N)(CCC)C(=O)O; Bn = c1ccc(C*)cc1

Molecular target: T1, human glucagon-like peptide-1 receptor (GLP-1R) (Homo sapiens, UniProt P43220)
T1 construct: host or cells: CHO chAMPion cells
T1 sequence (P43220 24-463): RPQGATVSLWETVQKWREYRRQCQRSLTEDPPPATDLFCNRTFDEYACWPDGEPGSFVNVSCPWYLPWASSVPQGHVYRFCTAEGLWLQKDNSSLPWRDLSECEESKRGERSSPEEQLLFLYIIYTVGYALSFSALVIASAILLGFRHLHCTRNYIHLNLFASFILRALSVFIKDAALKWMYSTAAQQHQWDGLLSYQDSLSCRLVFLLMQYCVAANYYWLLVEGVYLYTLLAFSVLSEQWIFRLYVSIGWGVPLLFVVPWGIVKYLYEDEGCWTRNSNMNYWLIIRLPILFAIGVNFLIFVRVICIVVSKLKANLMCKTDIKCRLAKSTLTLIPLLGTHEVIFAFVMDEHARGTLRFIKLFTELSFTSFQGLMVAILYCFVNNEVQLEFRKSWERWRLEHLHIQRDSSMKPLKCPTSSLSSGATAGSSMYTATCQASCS
Test: Human GLP-1 receptor cell-based assay (flash luminescence, Target Activation phase)
Conditions: CHO chAMPion cells stably co-expressing human GLP-1R, Photina and cAMP-activated calcium channel; agonist activity; normalization by forskolin at 10 μM; ^a) values from single experiment; read-out: EC50 (μM) Target Activation (TA)
From the text: CHO chAMPion cells (Axxam SpA; S. Corazza, Assay Drug Dev. Technol. 2009, 7, 304-307) stably co-expressing the human glucagon-like peptide-1 receptor (GLP-1R), the Ca^2+-sensitive photoprotein PHOTINA® (S. Bovolenta et al., J. Biomol. Screen. 2007, 12, 694-704) and a mutated cAMP-activated calcium ion channel (WO2004/083803 A2) were used to monitor GLP-1R signaling after stimulation with an agonist. Activation of the Gas-coupled GPCR GLP-1R was monitored by measuring the flash luminescence of the Ca^2+-sensitive photoprotein as reporter system with FLIPR^TETRA screening instrumentation (Molecular Devices) upgraded with an ICCD Camera (MDC). For data quality check and data analysis the Genedata SCREENER® software was used.
The reference agonist GLP-1 (glucagon-like peptide-1 amide fragment 7-36) and forskolin were purchased from Sigma (cat. G8147 and F6886, respectively) and prepared according to each ligand's specifications. All handling of ligands were done to ensure proper control throughout the experiments. The steps of the implemented workflow and data analysis are mainly as follows:
Stably transfected chAMPion cells are seeded 10000 c/w in 384 MTP in Dulbecco's MEM/nutrient mix F12 (BioWhittaker cat. BE04-687F/U1; 500 mL) supplemented with sodium pyruvate (BioWhittaker cat. BE13-115E; 5 mL of 100 mM solution), HEPES (BioWhittaker cat. BE17-737E; 6.5 mL of 1M solution), sodium bicarbonate (BioWhittaker cat. BE17-613E; 25 mL of 7.5% solution), fetal bovine serum (Euroclone cat. ECS 0180L; 50 mL), penicillin-streptomycin (BioWhittaker cat. DE17-602E; 5 mL of 100×solution), 1 mg/mL G418 (selection antibiotic for GLP-1R) and 200 μg/mL hygromycin in 25 μL/well for 24 hours. On the day of the experiment, plates are removed from the incubator, freed from the growth medium, equilibrated at room temperature for 1 h, loaded with 30 μl/well of Ca^2+ free Tyrode's buffer containing 20 μM coelentrazine and 500 μM IBMX, and incubated for 4 hours at room temperature.
All compounds were tested at 8 concentrations, starting from 50 μM in quadruplicate, intra-plate (dilution step 1:2.15) to determine EC50 values. After incubation, the volume in all the wells is flattened to 20 αL by aspiration with a CYBIO®-VARIO pipettor. First Injection (10 μL of test compounds in Ca^2+ free Tyrode's buffer, DMSO 0.5% v/v and BSA 0.01%; or 10 μL of reference compounds GLP-1 or forskolin in Ca′ free Tyrode's buffer, DMSO 0.5% v/v and BSA 0.01%) is performed by the FLIPR^TETRA and the kinetic response is optionally monitored over a period of 60 seconds. Incubation for 30 minutes at room temperature is followed by the Second Injection (Tyrode's buffer+10 mM CaCl2)) and the kinetic response is monitored over a period of 60 seconds.
The kinetic response is divided into two distinct phases: monitoring the kinetic response after the First Injection, termed Compound Addition (CA), and monitoring the kinetic response after the Second Injection of 10 mM CaCl2, termed Target Activation (TA). Agonist activity of compounds is evaluated in the Target Activation (TA) phase and it is based on normalization to TA activation by forskolin at 10 μM or GLP-1 at 3.16 nM (EC100)
A good correlation was observed between EC50, data normalized by forskolin and by GLP-1.

EC50 [µM] | Structure (SMILES)
0.72 ± 0.43 | C[C@@H]1NC(=O)[C@H](Cc2ccc(O)cc2)NC(=O)[C@H](CCC(N)=O)NC(=O)[C@H](Cc2ccc(O)cc2)NC(=O)[C@H](Cc2ccccc2)NC(=O)C2(CCCCC2)NC(=O)[C@H]2CCCN2C(=O)[C@H](Cc2ccc(O)cc2)NC(=O)[C@H](CCC(=O)O)NC(=O)[C@H](Cc2c[nH]c3ccccc23)NC1=O [compound 14, cyclo(-Phe-Tyr-Gln-Tyr-Ala-Trp-Glu-Tyr-^DPro-Chx-)] (cyclo(FYQYAWEY[dP][Ac6c]))
0.7 ± 0.42 | C[C@@H]1NC(=O)[C@H](Cc2ccc(O)cc2)NC(=O)[C@H](CCC(N)=O)NC(=O)[C@H](Cc2c[nH]c3ccccc23)NC(=O)[C@H](Cc2ccccc2)NC(=O)C2(CCCCC2)NC(=O)[C@H]2CCCN2C(=O)[C@H](Cc2cncn2Cc2ccccc2)NC(=O)[C@H](CCC(=O)O)NC(=O)[C@H](Cc2c[nH]c3ccccc23)NC1=O [compound 15, cyclo(-Phe-Trp-Gln-Tyr-Ala-Trp-Glu-His(Bn)-^DPro-Chx-)] (cyclo(FWQYAWE[His(π-Bn)][dP][Ac6c]))
0.41 | CC(C)C[C@@H]1NC(=O)[C@H](CCC(=O)O)NC(=O)[C@H](Cc2ccccc2)NC(=O)C2(CCCCC2)NC(=O)[C@H]2CCCN2C(=O)[C@H](Cc2c[nH]c3ccccc23)NC(=O)[C@H](CCC(=O)O)NC(=O)[C@H](Cc2c[nH]c3ccccc23)NC(=O)[C@H](C)NC(=O)[C@H](Cc2ccc(O)cc2)NC1=O [compound 16, cyclo(-Phe-Glu-Leu-Tyr-Ala-Trp-Glu-Trp-^DPro-Chx-)] (cyclo(FELYAWEW[dP][Ac6c]))
0.6 ± 0.29 | C[C@@H]1NC(=O)[C@H](Cc2ccc(O)cc2)NC(=O)[C@H](CCC(N)=O)NC(=O)[C@H](Cc2c[nH]c3ccccc23)NC(=O)[C@H](Cc2ccccc2)NC(=O)C2(CCCCC2)NC(=O)[C@H]2CCCN2C(=O)[C@H](Cc2c[nH]c3ccccc23)NC(=O)[C@H](CCC(=O)O)NC(=O)[C@H](Cc2c[nH]c3ccccc23)NC1=O [compound 17, cyclo(-Phe-Trp-Gln-Tyr-Ala-Trp-Glu-Trp-^DPro-Chx-)] (cyclo(FWQYAWEW[dP][Ac6c]))
0.82 ± 0.55 | C[C@@H]1NC(=O)[C@H](Cc2ccc(O)cc2)NC(=O)[C@H](CCC(N)=O)NC(=O)[C@H](Cc2c[nH]c3ccccc23)NC(=O)[C@H](Cc2ccccc2)NC(=O)C2(CCCCC2)NC(=O)[C@H]2CCCN2C(=O)[C@H](Cc2c[nH]c3ccc(O)cc23)NC(=O)[C@H](CCC(=O)O)NC(=O)[C@H](Cc2c[nH]c3ccccc23)NC1=O [compound 18, cyclo(-Phe-Trp-Gln-Tyr-Ala-Trp-Glu-Trp(5OH)-^DPro-Chx-)] (cyclo(FWQYAWE[Trp(5-OH)][dP][Ac6c]))
0.72 ± 0.38 | C[C@@H]1NC(=O)[C@H](Cc2ccc(O)cc2)NC(=O)[C@H](CCC(N)=O)NC(=O)[C@H](Cc2cccnc2)NC(=O)[C@H](Cc2ccccc2)NC(=O)C2(CCCCC2)NC(=O)[C@H]2CCCN2C(=O)[C@H](CCCNC(=N)N)NC(=O)[C@H](CCC(=O)O)NC(=O)[C@H](Cc2c[nH]c3ccccc23)NC1=O [compound 19, cyclo(-Phe-3Pal-Gln-Tyr-Ala-Trp-Glu-Arg-^DPro-Chx-)] (cyclo(F[3Pal]QYAWER[dP][Ac6c]))
0.59 ± 0.35 | CC(C)C[C@@H]1NC(=O)[C@H](Cc2c[nH]cn2)NC(=O)[C@H](Cc2ccccc2)NC(=O)C2(CCCCC2)NC(=O)[C@H]2CCCN2C(=O)[C@H](Cc2ccc(O)cc2)NC(=O)[C@H](CCC(=O)O)NC(=O)[C@H](Cc2c[nH]c3ccccc23)NC(=O)[C@H](C)NC(=O)[C@H](Cc2ccc(O)cc2)NC1=O [compound 20, cyclo(-Phe-His-Leu-Tyr-Ala-Trp-Glu-Tyr-^DPro-Chx-)] (cyclo(FHLYAWEY[dP][Ac6c]))
0.67 ± 0.28 | C[C@@H]1NC(=O)[C@H](Cc2ccc(O)cc2)NC(=O)[C@H](CCC(N)=O)NC(=O)[C@H](Cc2ccc(N)cc2)NC(=O)[C@H](Cc2ccccc2)NC(=O)C2(CCCCC2)NC(=O)[C@H]2CCCN2C(=O)[C@H](CCCNC(=N)N)NC(=O)[C@H](CCC(=O)O)NC(=O)[C@H](Cc2c[nH]c3ccccc23)NC1=O [compound 21, cyclo(-Phe-Phe(4NH2)-Gln-Tyr-Ala-Trp-Glu-Arg-^DPro-Chx-)] (cyclo(F[Phe(4-NH2)]QYAWER[dP][Ac6c]))
0.72 ± 0.4 | C[C@@H]1NC(=O)[C@H](Cc2ccc(O)cc2)NC(=O)[C@H](CCC(N)=O)NC(=O)[C@H](Cc2c[nH]c3ccccc23)NC(=O)[C@H](Cc2ccccc2)NC(=O)C2(CCCCC2)NC(=O)[C@H]2CCCN2C(=O)[C@H](Cc2ccc(OCc3ccccc3)cc2)NC(=O)[C@H](CCC(=O)O)NC(=O)[C@H](Cc2c[nH]c3ccccc23)NC1=O [compound 22, cyclo(-Phe-Trp-Gln-Tyr-Ala-Trp-Glu-Tyr(Bn)-^DPro-Chx-)] (cyclo(FWQYAWEY(Bn)[dP][Ac6c]))
0.67 ± 0.22 | COc1ccc(C[C@@H]2NC(=O)[C@H](CCC(N)=O)NC(=O)[C@H](Cc3c[nH]c4ccccc34)NC(=O)[C@H](Cc3ccccc3)NC(=O)C3(CCCCC3)NC(=O)[C@H]3CCCN3C(=O)[C@H](CCCNC(=N)N)NC(=O)[C@H](CCC(=O)O)NC(=O)[C@H](Cc3c[nH]c4ccccc34)NC(=O)[C@H](C)NC2=O)cc1 [compound 23, cyclo(-Phe-Trp-Gln-Tyr(Me)-Ala-Trp-Glu-Arg-^DPro-Chx-)] (cyclo(FWQY(Me)AWER[dP][Ac6c]))
0.89 ± 0.51 | C[C@@H]1NC(=O)[C@H](Cc2ccc(O)cc2)NC(=O)[C@H](CCC(N)=O)NC(=O)[C@H](Cc2c[nH]c3ccccc23)NC(=O)[C@H](Cc2ccccc2)NC(=O)C2(CCCCC2)NC(=O)[C@H]2CCCN2C(=O)[C@H](Cc2ccccc2)NC(=O)[C@H](CCC(=O)O)NC(=O)[C@H](Cc2c[nH]c3ccccc23)NC1=O [compound 24, cyclo(-Phe-Trp-Gln-Tyr-Ala-Trp-Glu-Phe-^DPro-Chx-)] (cyclo(FWQYAWEF[dP][Ac6c]))
0.94 ± 0.68 | CC(C)C[C@@H]1NC(=O)[C@H](CCC(=O)O)NC(=O)[C@H](Cc2ccccc2)NC(=O)C2(CCCCC2)NC(=O)[C@H]2CCCN2C(=O)[C@H](Cc2c[nH]c3ccc(O)cc23)NC(=O)[C@H](CCC(=O)O)NC(=O)[C@H](Cc2c[nH]c3ccccc23)NC(=O)[C@H](C)NC(=O)[C@H](Cc2ccc(O)cc2)NC1=O [compound 25, cyclo(-Phe-Glu-Leu-Tyr-Ala-Trp-Glu-Trp(5OH)-^DPro-Chx-)] (cyclo(FELYAWE[Trp(5-OH)][dP][Ac6c]))
1 ± 0.5 | CCCC1(CCC)NC(=O)[C@H]2CCCN2C(=O)[C@H](Cc2ccccc2)NC(=O)[C@H](CCC(=O)O)NC(=O)[C@H](Cc2c[nH]c3ccccc23)NC(=O)[C@H](C)NC(=O)[C@H](CC(C)C)NC(=O)[C@H](CC(C)C)NC(=O)[C@H](CCC(=O)O)NC(=O)[C@H](Cc2ccccc2)NC1=O [compound 26, cyclo(-Phe-Glu-Leu-Leu-Ala-Trp-Glu-Phe-^DPro-Dpg-)] (cyclo(FELLAWEF[dP][Dpg]))
0.58 | C[C@@H]1NC(=O)[C@H](Cc2ccccc2)NC(=O)[C@H](CCC(N)=O)NC(=O)[C@H](Cc2c[nH]c3ccccc23)NC(=O)[C@H](Cc2ccccc2)NC(=O)C2(CCCCC2)NC(=O)[C@H]2CCCN2C(=O)[C@H](Cc2ccc(O)cc2)NC(=O)[C@H](CCC(=O)O)NC(=O)[C@H](Cc2c[nH]c3ccccc23)NC1=O [compound 27, cyclo(-Phe-Trp-Gln-Phe-Ala-Trp-Glu-Tyr-^DPro-Chx-)] (cyclo(FWQFAWEY[dP][Ac6c]))
1.2 ± 0.9 | CC(C)C[C@@H]1NC(=O)[C@H](CCC(=O)O)NC(=O)[C@H](Cc2ccccc2)NC(=O)C2(CCCCC2)NC(=O)[C@H]2CCCN2C(=O)[C@H](Cc2ccc(O)cc2)NC(=O)[C@H](Cc2c[nH]c3ccc(O)cc23)NC(=O)[C@H](Cc2c[nH]c3ccccc23)NC(=O)[C@H](C)NC(=O)[C@H](Cc2ccc(O)cc2)NC1=O [compound 28, cyclo(-Phe-Glu-Leu-Tyr-Ala-Trp-Trp(5OH)-Tyr-^DPro-Chx-)] (cyclo(FELYAW[Trp(5-OH)]Y[dP][Ac6c]))
